According to patent US11358949B2, “Carbamate and urea compounds as multikinase inhibitors” (ANGEX PHARMACEUTICAL, INC., priority 2017, dated 2022):

Assays:
[1] = biological target: RET (Homo sapiens, UniProt P07949); assay: HotSpot Kinase Assay, RET
Procedure: (§1) Specifically, for each reaction, kinase and substrate were mixed in a pH 7.5 buffer containing 20 mM HEPES, 10 mM MgCl2, 1 mM EGTA [Ethylene glycol-bis(2-aminoethylether)-N,N,N′,N′-tetraacetic acid], 0.02% Brij35, 0.02 mg/mL BSA (Bovine Serum Albumin), 0.1 mM Na3VO4, 2 mM DTT, and 1% DMSO. Compounds were then added to each reaction mixture. After a 20-min incubation, ATP (Sigma-Aldrich) and [γ-^33P] ATP (PerkinElmer) were added at a final total concentration of 100 μM. Reactions were carried out at room temperature for 2 hours and spotted onto P81 ion exchange cellulose chromatography paper (Whatman). […] The percent remaining kinase activity relative to a vehicle-containing (DMSO) kinase reaction was calculated for each kinase/inhibitor pair. […] IC50 values were calculated using Prism 5 (GraphPad).

[2] = biological target: EPHB2 (Homo sapiens, UniProt P29323); assay: HotSpot Kinase Assay, EPHB2
Procedure: as §1

[3] = biological target: DDR2 (Homo sapiens, UniProt Q16832); assay: HotSpot Kinase Assay, DDR2
Procedure: as §1

[4] = biological target: FRK/PTK5 (Homo sapiens, UniProt P42685); assay: HotSpot Kinase Assay, FRK/PTK5
Procedure: as §1

[5] = biological target: FLT4 (Homo sapiens, UniProt P35916); assay: HotSpot Kinase Assay, FLT4
Procedure: as §1

[6] = biological target: EPHA2 (Homo sapiens, UniProt P29317); assay: HotSpot Kinase Assay, EPHA2
Procedure: as §1

[7] = biological target: EPHA1 (Homo sapiens, UniProt P21709); assay: HotSpot Kinase Assay, EPHA1
Procedure: as §1

[8] = biological target: FLT3 (Homo sapiens, UniProt P36888); assay: HotSpot Kinase Assay, FLT3
Procedure: as §1

[9] = biological target: T1, AXL (Homo sapiens, UniProt P30530); assay: HotSpot Kinase Assay, AXL
T1 sequence (P30530 26-894): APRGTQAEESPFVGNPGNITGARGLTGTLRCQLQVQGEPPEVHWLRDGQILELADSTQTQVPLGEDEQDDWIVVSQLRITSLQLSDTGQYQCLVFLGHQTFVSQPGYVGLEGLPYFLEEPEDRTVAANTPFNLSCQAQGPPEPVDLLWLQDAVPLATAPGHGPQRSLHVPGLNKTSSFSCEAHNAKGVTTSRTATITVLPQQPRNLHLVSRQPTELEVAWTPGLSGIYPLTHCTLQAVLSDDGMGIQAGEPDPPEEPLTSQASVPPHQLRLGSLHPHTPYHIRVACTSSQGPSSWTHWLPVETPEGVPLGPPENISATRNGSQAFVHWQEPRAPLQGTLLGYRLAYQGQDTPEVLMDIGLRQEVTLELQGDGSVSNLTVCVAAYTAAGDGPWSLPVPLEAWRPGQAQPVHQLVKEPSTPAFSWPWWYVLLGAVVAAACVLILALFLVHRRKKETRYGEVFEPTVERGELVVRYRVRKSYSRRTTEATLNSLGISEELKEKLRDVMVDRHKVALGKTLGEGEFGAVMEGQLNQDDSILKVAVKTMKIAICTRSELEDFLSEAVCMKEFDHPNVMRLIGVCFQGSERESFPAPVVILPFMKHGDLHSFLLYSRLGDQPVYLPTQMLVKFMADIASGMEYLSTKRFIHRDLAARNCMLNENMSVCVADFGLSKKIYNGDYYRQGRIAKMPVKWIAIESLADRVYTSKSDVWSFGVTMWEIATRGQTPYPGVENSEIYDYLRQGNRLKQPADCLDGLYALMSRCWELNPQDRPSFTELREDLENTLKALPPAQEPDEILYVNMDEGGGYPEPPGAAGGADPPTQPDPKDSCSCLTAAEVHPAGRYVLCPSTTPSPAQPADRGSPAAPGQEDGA
Procedure: as §1

[10] = biological target: KHS/MAP4K5 (Homo sapiens, UniProt Q9Y4K4); assay: HotSpot Kinase Assay, KHS/MAP4K5
Procedure: as §1

[11] = biological target: MEK5 (Homo sapiens, UniProt Q13163); assay: HotSpot Kinase Assay, MEK5
Procedure: as §1

[12] = biological target: CDK7/cyclin H (Homo sapiens, UniProt P50613); assay: HotSpot Kinase Assay, CDK7/cyclin H
Procedure: as §1

[13] = biological target: FMS (Homo sapiens, UniProt P07333); assay: HotSpot Kinase Assay, FMS
Procedure: as §1

[14] = biological target: TRKA (Homo sapiens, UniProt P04629); assay: HotSpot Kinase Assay, TRKA
Procedure: as §1

[15] = biological target: LCK (Homo sapiens, UniProt P06239); assay: HotSpot Kinase Assay, LCK
Procedure: as §1

[16] = biological target: RON/MST1R (Homo sapiens, UniProt Q04912); assay: HotSpot Kinase Assay, RON/MST1R
Procedure: as §1

MEK5, sequence (Q13163 whole entry): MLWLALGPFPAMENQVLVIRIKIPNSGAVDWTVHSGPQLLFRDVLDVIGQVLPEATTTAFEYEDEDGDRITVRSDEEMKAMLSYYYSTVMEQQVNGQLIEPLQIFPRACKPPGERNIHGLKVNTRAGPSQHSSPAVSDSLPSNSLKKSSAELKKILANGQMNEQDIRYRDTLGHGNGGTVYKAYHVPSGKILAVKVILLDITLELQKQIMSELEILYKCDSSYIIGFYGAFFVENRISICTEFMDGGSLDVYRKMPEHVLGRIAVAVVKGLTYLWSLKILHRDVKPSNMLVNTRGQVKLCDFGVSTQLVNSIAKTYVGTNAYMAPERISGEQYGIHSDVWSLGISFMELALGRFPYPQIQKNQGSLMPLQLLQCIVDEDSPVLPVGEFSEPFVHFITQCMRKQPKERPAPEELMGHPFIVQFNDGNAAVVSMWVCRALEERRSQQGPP
FLT3, sequence (P36888 27-993): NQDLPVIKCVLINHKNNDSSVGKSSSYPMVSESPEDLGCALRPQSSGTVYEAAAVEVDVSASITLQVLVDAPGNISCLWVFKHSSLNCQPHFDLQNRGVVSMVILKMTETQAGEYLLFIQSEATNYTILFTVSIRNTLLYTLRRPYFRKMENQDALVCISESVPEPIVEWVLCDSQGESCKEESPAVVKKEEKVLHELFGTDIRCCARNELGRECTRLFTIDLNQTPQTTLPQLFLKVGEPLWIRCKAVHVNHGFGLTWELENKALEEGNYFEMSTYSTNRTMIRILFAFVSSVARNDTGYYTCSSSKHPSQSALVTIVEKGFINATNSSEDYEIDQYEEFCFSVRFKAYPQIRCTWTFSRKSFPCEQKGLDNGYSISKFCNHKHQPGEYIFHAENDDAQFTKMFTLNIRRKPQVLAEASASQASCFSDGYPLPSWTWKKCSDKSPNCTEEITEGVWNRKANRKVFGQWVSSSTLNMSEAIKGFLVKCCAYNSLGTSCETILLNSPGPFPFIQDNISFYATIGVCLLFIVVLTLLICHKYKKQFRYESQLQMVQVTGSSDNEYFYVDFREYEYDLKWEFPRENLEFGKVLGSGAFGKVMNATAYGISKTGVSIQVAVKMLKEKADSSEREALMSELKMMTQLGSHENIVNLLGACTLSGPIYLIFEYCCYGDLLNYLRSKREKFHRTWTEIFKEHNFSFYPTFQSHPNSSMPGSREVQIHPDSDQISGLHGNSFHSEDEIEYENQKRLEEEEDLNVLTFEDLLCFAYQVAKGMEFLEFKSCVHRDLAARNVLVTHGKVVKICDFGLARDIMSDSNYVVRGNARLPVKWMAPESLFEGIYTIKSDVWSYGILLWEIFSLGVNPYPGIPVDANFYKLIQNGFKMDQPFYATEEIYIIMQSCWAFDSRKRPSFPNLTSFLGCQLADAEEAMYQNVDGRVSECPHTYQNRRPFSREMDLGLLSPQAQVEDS
DDR2, sequence (Q16832 22-855): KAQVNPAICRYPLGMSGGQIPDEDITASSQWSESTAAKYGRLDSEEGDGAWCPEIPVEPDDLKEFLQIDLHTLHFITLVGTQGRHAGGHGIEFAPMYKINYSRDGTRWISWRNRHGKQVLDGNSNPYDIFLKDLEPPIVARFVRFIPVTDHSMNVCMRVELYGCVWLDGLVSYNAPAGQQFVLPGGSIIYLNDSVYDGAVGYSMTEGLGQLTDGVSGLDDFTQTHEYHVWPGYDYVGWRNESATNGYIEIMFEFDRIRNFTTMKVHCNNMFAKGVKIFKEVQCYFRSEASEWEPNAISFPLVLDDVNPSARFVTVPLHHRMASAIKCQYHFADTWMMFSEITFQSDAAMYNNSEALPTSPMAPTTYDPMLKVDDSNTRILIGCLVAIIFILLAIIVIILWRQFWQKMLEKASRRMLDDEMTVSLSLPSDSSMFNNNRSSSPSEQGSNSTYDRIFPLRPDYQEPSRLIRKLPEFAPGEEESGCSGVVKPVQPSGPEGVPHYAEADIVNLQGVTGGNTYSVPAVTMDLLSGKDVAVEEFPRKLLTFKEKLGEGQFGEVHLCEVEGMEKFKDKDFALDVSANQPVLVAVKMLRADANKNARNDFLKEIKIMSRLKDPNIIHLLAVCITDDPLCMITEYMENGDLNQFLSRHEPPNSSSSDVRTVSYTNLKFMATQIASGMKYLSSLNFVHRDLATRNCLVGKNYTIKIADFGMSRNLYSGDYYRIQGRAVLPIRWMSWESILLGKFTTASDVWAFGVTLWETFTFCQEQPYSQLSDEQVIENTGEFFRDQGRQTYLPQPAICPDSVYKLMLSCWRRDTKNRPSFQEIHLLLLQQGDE
TRKA, sequence (P04629 33-796): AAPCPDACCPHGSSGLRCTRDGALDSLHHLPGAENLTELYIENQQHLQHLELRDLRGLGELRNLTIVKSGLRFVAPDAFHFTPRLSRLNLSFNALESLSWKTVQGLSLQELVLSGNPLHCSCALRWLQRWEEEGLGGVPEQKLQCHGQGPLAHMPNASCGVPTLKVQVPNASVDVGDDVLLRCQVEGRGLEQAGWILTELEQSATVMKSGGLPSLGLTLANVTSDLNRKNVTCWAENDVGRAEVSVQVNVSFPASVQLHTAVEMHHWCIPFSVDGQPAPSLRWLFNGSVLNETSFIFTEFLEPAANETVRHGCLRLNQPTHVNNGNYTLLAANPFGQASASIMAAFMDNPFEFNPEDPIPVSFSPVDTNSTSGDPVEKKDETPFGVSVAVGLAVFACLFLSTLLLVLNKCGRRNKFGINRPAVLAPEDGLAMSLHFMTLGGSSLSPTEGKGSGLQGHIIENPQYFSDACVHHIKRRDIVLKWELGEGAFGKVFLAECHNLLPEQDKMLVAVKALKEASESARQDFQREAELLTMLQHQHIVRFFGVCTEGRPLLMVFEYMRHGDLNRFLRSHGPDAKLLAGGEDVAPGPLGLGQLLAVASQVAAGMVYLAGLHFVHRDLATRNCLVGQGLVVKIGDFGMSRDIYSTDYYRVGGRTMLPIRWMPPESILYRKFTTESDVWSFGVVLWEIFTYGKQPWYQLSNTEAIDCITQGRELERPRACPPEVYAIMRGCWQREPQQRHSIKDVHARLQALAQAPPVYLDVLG
LCK, sequence (P06239 whole entry): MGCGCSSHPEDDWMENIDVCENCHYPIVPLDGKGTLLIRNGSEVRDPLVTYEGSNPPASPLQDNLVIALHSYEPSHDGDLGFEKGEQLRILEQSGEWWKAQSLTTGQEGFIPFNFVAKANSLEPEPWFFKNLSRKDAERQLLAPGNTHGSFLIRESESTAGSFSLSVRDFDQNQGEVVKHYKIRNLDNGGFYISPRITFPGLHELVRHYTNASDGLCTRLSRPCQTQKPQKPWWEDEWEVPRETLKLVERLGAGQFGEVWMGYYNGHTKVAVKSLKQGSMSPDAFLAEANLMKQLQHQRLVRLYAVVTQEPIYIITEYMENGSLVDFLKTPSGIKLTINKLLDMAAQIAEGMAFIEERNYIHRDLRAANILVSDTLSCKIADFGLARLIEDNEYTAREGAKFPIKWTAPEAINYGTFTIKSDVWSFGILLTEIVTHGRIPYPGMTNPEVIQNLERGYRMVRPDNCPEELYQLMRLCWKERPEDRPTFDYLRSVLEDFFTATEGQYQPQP
KHS/MAP4K5, sequence (Q9Y4K4 whole entry): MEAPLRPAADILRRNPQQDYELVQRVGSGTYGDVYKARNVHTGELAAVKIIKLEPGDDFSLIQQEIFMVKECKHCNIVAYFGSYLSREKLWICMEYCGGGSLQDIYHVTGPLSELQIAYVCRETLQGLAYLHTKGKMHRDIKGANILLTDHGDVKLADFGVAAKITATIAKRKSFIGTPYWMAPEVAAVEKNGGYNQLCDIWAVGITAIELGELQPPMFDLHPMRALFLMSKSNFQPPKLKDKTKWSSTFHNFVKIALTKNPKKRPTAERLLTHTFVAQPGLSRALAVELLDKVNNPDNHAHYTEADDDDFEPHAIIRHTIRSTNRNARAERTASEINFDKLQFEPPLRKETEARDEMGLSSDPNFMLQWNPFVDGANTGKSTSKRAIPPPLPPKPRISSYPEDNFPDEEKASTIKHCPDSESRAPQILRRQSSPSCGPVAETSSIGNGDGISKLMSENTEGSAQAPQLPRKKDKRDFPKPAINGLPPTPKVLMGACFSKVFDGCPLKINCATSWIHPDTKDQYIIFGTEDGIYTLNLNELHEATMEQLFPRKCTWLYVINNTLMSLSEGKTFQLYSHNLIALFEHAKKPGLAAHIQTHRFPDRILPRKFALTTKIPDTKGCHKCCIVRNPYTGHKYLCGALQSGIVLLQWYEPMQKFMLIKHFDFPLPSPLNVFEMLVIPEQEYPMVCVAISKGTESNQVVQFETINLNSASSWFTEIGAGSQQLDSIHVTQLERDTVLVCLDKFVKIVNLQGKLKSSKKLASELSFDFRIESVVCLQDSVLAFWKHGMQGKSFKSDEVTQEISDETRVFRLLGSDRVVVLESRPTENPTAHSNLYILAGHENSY
FRK/PTK5, sequence (P42685 whole entry): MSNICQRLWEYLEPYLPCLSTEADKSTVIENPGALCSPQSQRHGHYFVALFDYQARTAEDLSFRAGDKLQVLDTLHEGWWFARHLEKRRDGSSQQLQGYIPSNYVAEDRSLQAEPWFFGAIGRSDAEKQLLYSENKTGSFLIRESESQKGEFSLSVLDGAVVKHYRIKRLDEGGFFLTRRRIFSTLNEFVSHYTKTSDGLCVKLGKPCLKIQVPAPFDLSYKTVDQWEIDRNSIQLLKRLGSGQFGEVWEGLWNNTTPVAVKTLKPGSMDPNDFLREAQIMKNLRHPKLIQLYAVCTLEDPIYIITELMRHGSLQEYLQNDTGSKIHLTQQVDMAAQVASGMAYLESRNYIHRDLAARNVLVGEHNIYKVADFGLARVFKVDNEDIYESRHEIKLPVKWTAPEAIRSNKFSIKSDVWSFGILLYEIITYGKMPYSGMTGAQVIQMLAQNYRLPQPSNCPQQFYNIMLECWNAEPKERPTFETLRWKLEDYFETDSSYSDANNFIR

In the case of `COc1cc2c(Oc3ccc(NC(=O)C4(C(=O)Nc5ccc(F)cc5)CC4)cc3)ccnc2cc1OC(=O)N1CCN(C)CC1` [Compound 1-10], the IC50 [1] is reported as 100 to 1000 nM, the IC50 [2] is reported as 100 to 1000 nM and the IC50 [3] is reported as < 100 nM. For the same compound, the IC50 [4] was > 1000 nM, the IC50 [5] was 100 to 1000 nM and the IC50 [6] was < 100 nM. The IC50 [7] was > 1000 nM, the IC50 [8] was < 100 nM and the IC50 [9] was < 100 nM. For the same compound, the IC50 [10] was > 1000 nM, the IC50 [11] was > 1000 nM and the IC50 [12] was > 1000 nM. The IC50 [13] was < 100 nM, the IC50 [14] was < 100 nM and the IC50 [15] was 100 to 1000 nM. For the same compound, the IC50 [16] was > 1000 nM.
